Measured values taken from patent publication US8445676B2, “Pyrrolotriazine kinase inhibitors” (Bristol-Myers Squibb Company, priority 2008, dated 2013).

Molecular target: JAK2 (Homo sapiens, UniProt O60674)
Assay: JAK2 Tyrosine Kinase Assay
Type: biochemical
Details: list of named compounds; read-out: IC50 in the JAK2 assay
Procedure: JAK2 Tyrosine Kinase Assay
The assays were performed in V-bottom 384-well plates. […] The reaction was initiated by the combination of JAK2 with substrates and test compounds. The reaction was incubated at room temperature for 60 min. and terminated by adding 45 μl of 35 mM EDTA to each sample. The reaction mixture was analyzed on the Caliper LabChip 3000 by electrophoretic separation of the fluorescent substrate and phosphorylated product. […] Compounds were dissolved at 10 mM in dimethylsulfoxide (DMSO) and evaluated at eleven concentrations, each in duplicate. IC50 values were derived by non-linear regression analysis

JAK2, sequence (O60674 whole entry): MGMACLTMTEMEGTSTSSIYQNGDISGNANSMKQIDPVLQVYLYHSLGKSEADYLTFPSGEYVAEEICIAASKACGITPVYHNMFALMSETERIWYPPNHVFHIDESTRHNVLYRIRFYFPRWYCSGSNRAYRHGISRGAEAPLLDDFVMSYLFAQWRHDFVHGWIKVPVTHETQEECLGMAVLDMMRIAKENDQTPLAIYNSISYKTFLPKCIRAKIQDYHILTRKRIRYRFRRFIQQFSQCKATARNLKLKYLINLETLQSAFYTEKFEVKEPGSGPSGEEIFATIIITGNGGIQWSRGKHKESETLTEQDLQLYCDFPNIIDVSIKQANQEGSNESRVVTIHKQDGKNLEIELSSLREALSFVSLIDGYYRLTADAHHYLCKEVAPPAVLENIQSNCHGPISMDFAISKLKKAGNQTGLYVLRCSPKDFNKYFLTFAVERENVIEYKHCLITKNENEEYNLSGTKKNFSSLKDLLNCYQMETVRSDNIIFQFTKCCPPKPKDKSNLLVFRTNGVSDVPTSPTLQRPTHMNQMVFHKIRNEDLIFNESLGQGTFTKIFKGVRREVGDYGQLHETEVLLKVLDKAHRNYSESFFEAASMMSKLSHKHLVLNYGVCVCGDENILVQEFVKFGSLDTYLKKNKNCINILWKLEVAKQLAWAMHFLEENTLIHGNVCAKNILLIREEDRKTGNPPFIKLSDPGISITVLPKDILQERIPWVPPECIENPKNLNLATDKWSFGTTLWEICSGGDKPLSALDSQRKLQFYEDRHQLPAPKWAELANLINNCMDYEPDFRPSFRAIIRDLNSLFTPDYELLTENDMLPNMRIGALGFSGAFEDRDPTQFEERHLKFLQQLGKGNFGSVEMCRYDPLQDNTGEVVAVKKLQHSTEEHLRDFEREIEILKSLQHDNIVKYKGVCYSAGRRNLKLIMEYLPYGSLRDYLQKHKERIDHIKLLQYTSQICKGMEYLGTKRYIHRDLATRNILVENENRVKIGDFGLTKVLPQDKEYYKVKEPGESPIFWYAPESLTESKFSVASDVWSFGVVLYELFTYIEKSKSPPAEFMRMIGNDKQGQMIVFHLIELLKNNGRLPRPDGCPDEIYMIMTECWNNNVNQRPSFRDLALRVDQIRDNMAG

In the case of `Cc1cc(Nc2nc(N3CCN(C(=O)c4ccccc4[N+](=O)[O-])CC3)nn3cccc23)n[nH]1` [N-(5-methyl-1H-pyrazol-3-yl)-2-(4-(2-nitrobenzoyl)-1-piperazinyl)pyrrolo[2,1-f][1,2,4]triazin-4-amine], the IC50 is reported as ≤ 5 nM.

In the case of `Cc1cc(Nc2nc(N3CCN(C(=O)c4ccccc4Oc4ccccc4)CC3)nn3cccc23)n[nH]1` [N-(5-methyl-1H-pyrazol-3-yl)-2-(4-(2-phenoxybenzoyl)-1-piperazinyl)pyrrolo[2,1-f][1,2,4]triazin-4-amine], the IC50 is reported as ≤ 5 nM.

With `CCC(C(=O)N1CCN(c2nc(Nc3cc(C)[nH]n3)c3cccn3n2)CC1)c1ccccc1` (stereo not shown) [N-(5-methyl-1H-pyrazol-3-yl)-2-(4-(2-phenylbutanoyl)-1-piperazinyl)pyrrolo[2,1-f][1,2,4]triazin-4-amine] the IC50 was ≤ 5 nM.

With `Cc1cc(Nc2nc(N3CCN(C(=O)c4cccc(C(F)(F)F)c4)CC3)nn3cccc23)n[nH]1` [N-(5-methyl-1H-pyrazol-3-yl)-2-(4-(3-(trifluoromethyl)benzoyl)-1-piperazinyl)pyrrolo[2,1-f][1,2,4]triazin-4-amine] the IC50 was ≤ 5 nM.

With `Cc1cc(Nc2nc(N3CCN(C(=O)c4ccc(OC(F)(F)F)cc4)CC3)nn3cccc23)n[nH]1` [N-(5-methyl-1H-pyrazol-3-yl)-2-(4-(4-(trifluoromethoxy)benzoyl)-1-piperazinyl)pyrrolo[2,1-f][1,2,4]triazin-4-amine] the IC50 was ≤ 5 nM.

In the case of `Cc1cc(Nc2nc(N3CCN(C(=O)c4ccc(C(F)(F)F)cc4)CC3)nn3cccc23)n[nH]1` [N-(5-methyl-1H-pyrazol-3-yl)-2-(4-(4-(trifluoromethyl)benzoyl)-1-piperazinyl)pyrrolo[2,1-f][1,2,4]triazin-4-amine], the IC50 is reported as ≤ 5 nM.

In the case of `Cc1cc(Nc2nc(N3CCN(C(=O)C4(C(F)(F)F)CCC4)CC3)nn3cccc23)n[nH]1` [N-(5-methyl-1H-pyrazol-3-yl)-2-(4-((1-(trifluoromethyl)cyclobutyl)carbonyl)-1-piperazinyl)pyrrolo[2,1-f][1,2,4]triazin-4-amine], the IC50 is reported as ≤ 5 nM.

For `Cc1cc(Nc2nc(N3CCN(C(=O)c4cccn4C)CC3)nn3cccc23)n[nH]1` [N-(5-methyl-1H-pyrazol-3-yl)-2-(4-((1-methyl-1H-pyrrol-2-yl)carbonyl)-1-piperazinyl)pyrrolo[2,1-f][1,2,4]triazin-4-amine], the IC50 was ≤ 5 nM.

`Cc1cc(Nc2nc(N3CCN(C(=O)C4(c5ccccc5)CCC4)CC3)nn3cccc23)n[nH]1` [N-(5-methyl-1H-pyrazol-3-yl)-2-(4-((1-phenylcyclobutyl)carbonyl)-1-piperazinyl)pyrrolo[2,1-f][1,2,4]triazin-4-amine] was tested, and the IC50 was ≤ 5 nM.

In the case of `Cc1cc(Nc2nc(N3CCN(C(=O)C4(c5ccccc5)CCCC4)CC3)nn3cccc23)n[nH]1` [N-(5-methyl-1H-pyrazol-3-yl)-2-(4-((1-phenylcyclopentyl)carbonyl)-1-piperazinyl)pyrrolo[2,1-f][1,2,4]triazin-4-amine], the IC50 is reported as ≤ 5 nM.

`Cc1cc(Nc2nc(N3CCN(C(=O)C4(c5ccccc5)CC4)CC3)nn3cccc23)n[nH]1` [N-(5-methyl-1H-pyrazol-3-yl)-2-(4-((1-phenylcyclopropyl)carbonyl)-1-piperazinyl)pyrrolo[2,1-f][1,2,4]triazin-4-amine] was tested, and the IC50 was ≤ 5 nM.

`Cc1cc(Nc2nc(N3CCN(C(=O)Cc4ccccc4C(F)(F)F)CC3)nn3cccc23)n[nH]1` [N-(5-methyl-1H-pyrazol-3-yl)-2-(4-((2-(trifluoromethyl)phenyl)acetyl)-1-piperazinyl)pyrrolo[2,1-f][1,2,4]triazin-4-amine] was tested, and the IC50 was ≤ 5 nM.

For `Cc1cc(Nc2nc(N3CCN(C(=O)c4cccnc4C)CC3)nn3cccc23)n[nH]1` [N-(5-methyl-1H-pyrazol-3-yl)-2-(4-((2-methyl-3-pyridinyl)carbonyl)-1-piperazinyl)pyrrolo[2,1-f][1,2,4]triazin-4-amine], the IC50 was ≤ 5 nM.

With `CC[C@H](C(=O)N1CCN(c2nc(Nc3cc(C)[nH]n3)c3cccn3n2)CC1)c1ccccc1` [N-(5-methyl-1H-pyrazol-3-yl)-2-(4-((2S)-2-phenylbutanoyl)-1-piperazinyl)pyrrolo[2,1-f][1,2,4]triazin-4-amine] the IC50 was ≤ 5 nM.

In the case of `CO[C@](C(=O)N1CCN(c2nc(Nc3cc(C)[nH]n3)c3cccn3n2)CC1)(c1ccccc1)C(F)(F)F` [N-(5-methyl-1H-pyrazol-3-yl)-2-(4-((2S)-3,3,3-trifluoro-2-methoxy-2-phenylpropanoyl)-1-piperazinyl)pyrrolo[2,1-f][1,2,4]triazin-4-amine], the IC50 is reported as ≤ 5 nM.

`Cc1cc(Nc2nc(N3CCN(C(=O)Cc4cccc(OC(F)(F)F)c4)CC3)nn3cccc23)n[nH]1` [N-(5-methyl-1H-pyrazol-3-yl)-2-(4-((3-(trifluoromethoxy)phenyl)acetyl)-1-piperazinyl)pyrrolo[2,1-f][1,2,4]triazin-4-amine] was tested, and the IC50 was ≤ 5 nM.

With `Cc1cc(Nc2nc(N3CCN(C(=O)Cc4cccc(C(F)(F)F)c4)CC3)nn3cccc23)n[nH]1` [N-(5-methyl-1H-pyrazol-3-yl)-2-(4-((3-(trifluoromethyl)phenyl)acetyl)-1-piperazinyl)pyrrolo[2,1-f][1,2,4]triazin-4-amine] the IC50 was ≤ 5 nM.

For `Cc1cc(Nc2nc(N3CCN(C(=O)Cc4ccc(OC(F)(F)F)cc4)CC3)nn3cccc23)n[nH]1` [N-(5-methyl-1H-pyrazol-3-yl)-2-(4-((4-(trifluoromethoxy)phenyl)acetyl)-1-piperazinyl)pyrrolo[2,1-f][1,2,4]triazin-4-amine], the IC50 was ≤ 5 nM.

For `Cc1csc(C(=O)N2CCN(c3nc(Nc4cc(C)[nH]n4)c4cccn4n3)CC2)c1` [N-(5-methyl-1H-pyrazol-3-yl)-2-(4-((4-methyl-2-thienyl)carbonyl)-1-piperazinyl)pyrrolo[2,1-f][1,2,4]triazin-4-amine], the IC50 was ≤ 5 nM.

In the case of `Cc1ccc(C(=O)N2CCN(c3nc(Nc4cc(C)[nH]n4)c4cccn4n3)CC2)cn1` [N-(5-methyl-1H-pyrazol-3-yl)-2-(4-((6-methyl-3-pyridinyl)carbonyl)-1-piperazinyl)pyrrolo[2,1-f][1,2,4]triazin-4-amine], the IC50 is reported as ≤ 5 nM.

In the case of `Cc1cc(Nc2nc(N3CCN(C(=O)Cc4ccccc4)CC3)nn3cccc23)n[nH]1` [N-(5-methyl-1H-pyrazol-3-yl)-2-(4-(phenylacetyl)-1-piperazinyl)pyrrolo[2,1-f][1,2,4]triazin-4-amine], the IC50 is reported as ≤ 5 nM.

In the case of `CCCCC(=O)N1CCN(c2nc(Nc3cc(C)[nH]n3)c3cccn3n2)CC1` [N-(5-methyl-1H-pyrazol-3-yl)-2-(4-pentanoyl-1-piperazinyl)pyrrolo[2,1-f][1,2,4]triazin-4-amine], the IC50 is reported as ≤ 5 nM.

With `Cc1cc(Nc2nc(N3CCN(C(=O)C(NC(=O)OC(C)(C)C)c4ccc(Cl)cc4)CC3)nn3cccc23)n[nH]1` (stereo not shown) [tert-butyl (1-(4-chlorophenyl)-2-(4-(4-((5-methyl-1H-pyrazol-3-yl)amino)pyrrolo[2,1-f][1,2,4]triazin-2-yl)-1-piperazinyl)-2-oxoethyl)carbamate] the IC50 was ≤ 5 nM.

For `Cc1cc(Nc2nc(N3CCN(C(=O)C4(NC(=O)OC(C)(C)C)CCc5ccccc54)CC3)nn3cccc23)n[nH]1` (stereo not shown) [tert-butyl (1-((4-(4-((5-methyl-1H-pyrazol-3-yl)amino)pyrrolo[2,1-f][1,2,4]triazin-2-yl)-1-piperazinyl)carbonyl)-2,3-dihydro-1H-inden-1-yl)carbamate], the IC50 was ≤ 5 nM.

With `Cc1cc(Nc2nc(N3CCN(C(=O)c4ccccc4NC(=O)OC(C)(C)C)CC3)nn3cccc23)n[nH]1` [tert-butyl (2-((4-(4-((5-methyl-1H-pyrazol-3-yl)amino)pyrrolo[2,1-f][1,2,4]triazin-2-yl)-1-piperazinyl)carbonyl)phenyl)carbamate] the IC50 was ≤ 5 nM.
